In US20230167088A1, “1-PYRAZINYLPYRAZOLYL-3-OXYALKYL ACIDS AND THEIR DERIVATIVES, AND THEIR USE FOR CONTROL OF UNDESIRED PLANT GROWTH” (BAYER AKTIENGESELLSCHAFT, priority 2020, published 2023):

Legend:
[1] = system: ALOMY; experiment: Herbicidal post-emergence action 1a (greenhouse pots, visual rating); type: in vivo, Alopecurus myosuroides; conditions: rated visually about 3 weeks after treatment, 100% = plants have died, 0% = like control plants
How it was run: (§1)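 Visual scoring versus untreated plants (100% = plants dead, 0% = as control) followed roughly 3 weeks in the greenhouse after treatment. Plants grown in sandy loam pots had been sprayed on green parts at the one-leaf stage, 2–3 weeks post-sowing, with aqueous WP/EC preparations containing 0.5% additive, 600 l/ha, at 320 and/or 80 g/ha.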

[2] = system: ECHCG; experiment: as above; type: in vivo, Echinochloa crus-galli; conditions: rated visually about 3 weeks after treatment, 100% = plants have died, 0% = like control plants
How it was run: as §1

[3] = system: AMARE; experiment: as above; type: in vivo, Amaranthus retroflexus; conditions: dosage 320 g/ha, visual rating about 3 weeks after treatment
How it was run: as §1

[4] = system: MATIN; experiment: as above; type: in vivo, Matricaria inodora; conditions: dosage 320 g/ha, visual rating about 3 weeks after treatment
Protocol: (§2) [table] a) Seeds of monocotyledonous and dicotyledonous weeds and crop plants are placed in sandy loam in plastic or organic plant pots, covered with soil and cultivated in a greenhouse under controlled growth conditions. 2 to 3 weeks after sowing, the test plants are treated at the one-leaf stage. The compounds of the invention, formulated in the form of wettable powders (WP) or as emulsion concentrates (EC), are then sprayed onto the green parts of the plants as aqueous suspension or emulsion with addition of 0.5% additive at a water application rate of 600 1/ha (converted). After the test plants have been kept in the greenhouse under optimum growth conditions for about 3 weeks, the activity of the preparations is rated visually in comparison to untreated controls. For example, 100% activity=the plants have died, 0% activity=like control plants. Tables A1 to A15 below show the effects of selected compounds of the general formula (I) according to Tables 1 and 2 on various harmful plants and an application rate corresponding to 320 g/ha and/or 80 g/ha, which were obtained by the experimental procedure mentioned above.

[5] = system: PHBPU; experiment: as above; type: in vivo, Pharbitis purpurea; conditions: visual rating about 3 weeks after treatment
How it was run: as §1

[6] = system: STEME; experiment: as above; type: in vivo, Stellaria media; conditions: Dosage 320 g/ha; rated visually about 3 weeks after treatment; 100% = plants have died, 0% = like control plants
Protocol: as §2

[7] = system: VIOTR; experiment: as above; type: in vivo, Viola tricolor; conditions: dosage 320 g/ha, visual rating about 3 weeks after treatment
How it was run: as §1

[8] = system: VERPE; experiment: as above; type: in vivo, Veronica persica; conditions: dosage 320 g/ha, visual rating about 3 weeks after treatment
How it was run: as §1

[9] = system: POAAN; experiment: Herbicidal post-emergence action 1b (twin sowing, 1280 g/ha); type: in vivo, Poa annua; conditions: dosage 1280 g/ha, visual rating about 3 weeks after treatment
How it was run: (§3)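 Compounds formulated as WP or EC were applied with 0.5% additive in 600 L/ha water onto one-leaf-stage weeds, each pot sown with one monocot and one dicot species in sandy loam. After roughly 3 weeks in the greenhouse, visual percent activity was scored against untreated plants.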

[10] = system: ECHCG; experiment: as above; type: in vivo, Echinochloa crus-galli; conditions: dosage 1280 g/ha, visual rating about 3 weeks after treatment
How it was run: as §3

[11] = system: MATIN; experiment: as above; type: in vivo, Matricaria inodora; conditions: dosage 1280 g/ha, visual rating about 3 weeks after treatment
How it was run: as §3

[12] = system: STEME; experiment: as above; type: in vivo, Stellaria media; conditions: dosage 1280 g/ha, visual rating about 3 weeks after treatment
How it was run: as §3

[13] = system: DIGSA; experiment: Herbicidal pre-emergence action 2a (greenhouse pots, visual scoring); type: in vivo, Digitaria sanguinalis; conditions: dosage 320 g/ha, visual scoring after about 3 weeks
How it was run: (§4)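 Pots of covered seed were sprayed pre-emergence at 320 and/or 80 g/ha. Roughly three weeks of greenhouse growth preceded visual scoring in percent versus untreated controls.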

[14] = system: AMARE; experiment: as above; type: in vivo, Amaranthus retroflexus; conditions: dosage 320 g/ha, visual scoring after about 3 weeks vs untreated controls
How it was run: as §4

[15] = system: MATIN; experiment: as above; type: in vivo, Matricaria inodora; conditions: dosage 320 g/ha, visual scoring after about 3 weeks vs untreated controls
How it was run: as §4

[16] = system: VERPE; experiment: as above; type: in vivo, Veronica persica; conditions: dosage 320 g/ha, visual scoring after about 3 weeks vs untreated controls
How it was run: as §4

[17] = system: POAAN; experiment: Herbicidal pre-emergence action 2b (doubly sown, 1280 g/ha); type: in vivo, Poa annua; conditions: doubly sown pots, dosage 1280 g/ha, visual scoring after about 3 weeks
How it was run: (§5)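 Visual % scores against untreated plants (0% = like control, 100% = dead) were taken roughly 3 weeks after treatment in the greenhouse. Compounds, as WP or EC with 0.5% additive, were applied in 600 l/ha water onto covering soil over seeds of paired mono-/dicot weeds in sandy loam.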

[18] = system: ECHCG; experiment: as above; type: in vivo, Echinochloa crus-galli; conditions: doubly sown pots, dosage 1280 g/ha, visual scoring after about 3 weeks
How it was run: as §5

[19] = system: AMARE; experiment: as above; type: in vivo, Amaranthus retroflexus; conditions: doubly sown pots, dosage 1280 g/ha, visual scoring after about 3 weeks
How it was run: as §5

[20] = system: MATIN; experiment: as above; type: in vivo, Matricaria inodora; conditions: doubly sown pots, dosage 1280 g/ha, visual scoring after about 3 weeks
How it was run: as §5

[21] = system: STEME; experiment: as above; type: in vivo, Stellaria media; conditions: doubly sown pots, dosage 1280 g/ha, visual scoring after about 3 weeks
How it was run: as §5

[22] = system: DIGSA; experiment: Herbicidal post-emergence action 1b (twin sowing, 1280 g/ha); type: in vivo, Digitaria sanguinalis; conditions: dosage 1280 g/ha, visual rating about 3 weeks after treatment
How it was run: as §3

[23] = system: ABUTH; experiment: as above; type: in vivo, Abutilon theophrasti; conditions: dosage 1280 g/ha, visual rating about 3 weeks after treatment
Protocol: [table] b) Seeds of mono- and dicotyledonous weed plants are placed in plastic pots in sandy loam soil (twin sowing with one species each of mono- or dicotyledonous weed plants per pot), covered with soil and cultivated in a greenhouse under controlled growth conditions. 2 to 3 weeks after sowing, the test plants are treated at the one-leaf stage. The compounds of the invention, formulated in the form of wettable powders (WP) or as emulsion concentrates (EC), are applied to the green parts of the plants as aqueous suspension or emulsion with addition of 0.5% additive at a water application rate equivalent to 600 litres per hectare. After the test plants have been kept in the greenhouse under optimum growth conditions for about 3 weeks, the activity of the preparations is rated visually in comparison to untreated controls. For example, 100% activity=the plants have died, 0% activity=like control plants. Tables A16 to A21 below show the effects of selected compounds of the general formula (I) according to Tables 1 and 2 on various harmful plants and at an application rate corresponding to 1280 g/ha, which were obtained by the experimental procedure mentioned above.

[24] = system: ALOMY; experiment: Herbicidal pre-emergence action 2a (greenhouse pots, visual scoring); type: in vivo, Alopecurus myosuroides; conditions: dosage 320 g/ha, visual scoring after about 3 weeks
How it was run: as §4

[25] = system: AVEFA; experiment: as above; type: in vivo, Avena fatua; conditions: dosage 320 g/ha, visual scoring after about 3 weeks
How it was run: as §4

[26] = system: ECHCG; experiment: as above; type: in vivo, Echinochloa crus-galli; conditions: dosage 320 g/ha, visual scoring after about 3 weeks
Source text: (§6) [table] a) Seeds of monocotyledonous and dicotyledonous weed plants and crop plants are placed in plastic or organic plant pots and covered with soil. The compounds of the invention, formulated in the form of wettable powders (WP) or as emulsion concentrates (EC), are then applied onto the surface of the covering soil as aqueous suspension or emulsion with addition of 0.5% additive at a water application rate of 600 1/ha (converted). After the treatment, the pots are placed in a greenhouse and kept under good growth conditions for the trial plants. After about 3 weeks, the effect of the preparations is scored visually in comparison with untreated controls as percentages. For example, 100% activity=the plants have died, 0% activity=like control plants. Tables B1 to B15 below show the effects of selected compounds of the general formula (I) according to Tables 1 and 2 on various harmful plants and an application rate corresponding to 320 g/ha and/or 80 g/ha, which were obtained by the experimental procedure mentioned above.

[27] = system: SETVI; experiment: as above; type: in vivo, Setaria viridis; conditions: dosage 320 g/ha, visual scoring after about 3 weeks vs untreated controls
How it was run: as §4

[28] = system: PHBPU; experiment: as above; type: in vivo, Pharbitis purpurea; conditions: dosage 320 g/ha, visual scoring after about 3 weeks vs untreated controls
Source text: as §6

[29] = system: POLCO; experiment: as above; type: in vivo, Polygonum convolvulus; conditions: dosage 320 g/ha, visual scoring after about 3 weeks vs untreated controls
How it was run: as §4

[30] = system: VIOTR; experiment: as above; type: in vivo, Viola tricolor; conditions: dosage 320 g/ha, visual scoring after about 3 weeks vs untreated controls
How it was run: as §4

[31] = system: DIGSA; experiment: Herbicidal pre-emergence action 2b (doubly sown, 1280 g/ha); type: in vivo, Digitaria sanguinalis; conditions: doubly sown pots, dosage 1280 g/ha, visual scoring after about 3 weeks
How it was run: as §5

[32] = system: LOLRI; experiment: Herbicidal pre-emergence action 2a (greenhouse pots, visual scoring); type: in vivo, Lolium rigidum; conditions: dosage 320 g/ha, visual scoring after about 3 weeks vs untreated controls
How it was run: as §4

SMILES	Post-emergence action at 1280 g/ha against POAAN in % [9]	Post-emergence action at 1280 g/ha against ECHCG in % [10]	Post-emergence action at 1280 g/ha against MATIN in % [11]	Post-emergence action at 1280 g/ha against STEME in % [12]	Pre-emergence action against AMARE in % [14]	Pre-emergence action against MATIN in % [15]	Pre-emergence action against VERPE in % [16]	Pre-emergence action at 1280 g/ha against POAAN in % [17]	Pre-emergence action at 1280 g/ha against ECHCG in % [18]	Pre-emergence action at 1280 g/ha against AMARE in % [19]	Pre-emergence action at 1280 g/ha against MATIN in % [20]	Pre-emergence action at 1280 g/ha against STEME in % [21]	Post-emergence action against ALOMY in % ([1]; Dosage 80 g/ha)	Post-emergence action at 1280 g/ha against DIGSA in % [22]	Post-emergence action at 1280 g/ha against ABUTH in % [23]	Pre-emergence action against ALOMY in % [24]	Pre-emergence action against AVEFA in % [25]	Pre-emergence action against ECHCG in % [26]	Pre-emergence action against SETVI in % [27]	Pre-emergence action against PHBPU in % [28]	also measured
CCOC(=O)COc1nn(-c2cnccn2)c(-c2cccc(F)c2)c1Br [Example I-02]	90%	90%	90%	90%	100%	90%	100%	100%	100%	100%	100%	100%									Post-emergence action against ALOMY in % ([1]; Dosage 320 g/ha): 80%; Post-emergence action against ECHCG in % ([2]; Dosage 320 g/ha): 80%; Post-emergence action against AMARE in % [3]: 80%; Post-emergence action against MATIN in % [4]: 80%; Post-emergence action against PHBPU in % ([5]; dosage 320 g/ha): 90%; Post-emergence action against STEME in % [6]: 80%; Post-emergence action against VIOTR in % [7]: 80%; Post-emergence action against VERPE in % [8]: 80%; Pre-emergence action against DIGSA in % [13]: 90%
COCCOCCOC(=O)COc1nn(-c2cnccn2)c(-c2ccc(F)nc2)c1Br [Example I-67]	100%	90%	100%	90%	100%	80%	90%	100%	100%	100%	100%	100%	90%	100%	90%	100%	80%	90%	90%	80%	Pre-emergence action against POLCO in % [29]: 90%; Pre-emergence action against VIOTR in % [30]: 90%; Pre-emergence action at 1280 g/ha against DIGSA in % [31]: 100%
COCCOC(=O)COc1nn(-c2cnccn2)c(-c2ccc(F)nc2)c1Br [Example I-68]	100%	100%	90%	100%	100%	90%	90%	100%	100%	100%	100%	100%	80%	100%	100%	100%	90%	90%	100%	80%	Post-emergence action against ECHCG in % ([2]; Dosage 80 g/ha): 80%; Post-emergence action against PHBPU in % ([5]; dosage 80 g/ha): 80%; Pre-emergence action against LOLRI in % [32]: 80%; Pre-emergence action against VIOTR in % [30]: 90%; Pre-emergence action at 1280 g/ha against DIGSA in % [31]: 100%
